The test system of one assay is Plexin C1. Kind of assay: Plexin C1 protein expression in human melanoma cell lines treated with DNA methylation inhibitor (Western blot). It is filed as cell-based. The note with it: 5 days; for Change in Plexin C1 protein: 3 μM. As for the experimental part:
Results are representative of 2 separate experiments.
Promotor hypermethylation plays a major role in transcriptional silencing of tumor suppressor genes in cancer and in melanoma (Dahl and Guldberg, 2007; Gronbaek et al., 2007; Rothhammer and Bosserhoff, 2007). To determine if Plexin C1 expression is regulated by DNA hypermethylation, melanoma cells were treated for 5 days with the DNA methylation inhibitor 5-Aza-2′-Deoxycytidine (5-Aza2Dc; 3 μM). Total cell lysates were then blotted for Plexin C1. […] But, a dose of 1.0 μM was the lowest dose that stimulated Plexin C1 expression in the YURIF and WW165 cell lines (FIG. 1C).
Neonatal foreskins were obtained according to the University of Rochester Research Subjects Review Board guidelines and were the source of cultured human melanocytes. Human melanocytes were cultured in MCDB 153 supplemented with 0.5% fetal bovine serum (FBS), bovine pituitary extract (15 μg/ml), phorbol ester (10 nM), basic fibroblast growth factor (1 ng/ml), insulin (5 μg/ml) and hydrocortisone (500 ng/ml). All supplements were purchased from Sigma Co, except FBS, which was purchased from Mediatech (Manassas, Va.). The following human melanoma cell lines were purchased from the Yale University Cell Core Facility: WW165, YURIF, YUSIK, YUMAC, and were maintained in Opti-MEM+5% FBS, except WW165 which was maintained in Opti-MEM+5% FBS and IBMX 0.1 mM. The C32 and WM115 human melanoma cell lines were obtained from American Type Culture Collection (Manassas Va.) and were maintained in Eagle Minimal Essential Media (MEM)+10% FBS and 1 mM sodium pyruvate. The WM115 and WW 165 cell lines were derived from melanomas primary to the skin; the other cell lines were derived from metastatic melanoma.
For Western blotting, cells were lysed in RIPA buffer (150 mM NaCl, 1% NP-40, 0.5% DOC, 0.1% SDS, 50 mM Tris-HCl) with protease inhibitors (Boehringer Mannheim, Gmbt, Germany) and phosphatase inhibitors (Gbiosciences, St. Louis, Mo.) and protein was quantified using bovine serum albumen (BSA) as standard (Bio-Rad Laboratories, Hercules, Calif.). Visualization of the immunoreactive proteins was accomplished with an enhanced chemiluminescence reaction (Pierce Chemical, Rockford, Ill.). For analysis of cell surface Sema7A expression in melanoma cell lines by flow cytometry, cells were placed in suspension in PBS/1% BSA and stained with FITC-conjugated antibodies against Sema7A for 30 minutes at room temperature. Negative controls consisted of cells incubated with FITC-conjugated IgM. After washing in PBS, cells were re-suspended in 0.5% formalin in PBS/1% BSA and analyzed using a FACS Caliber Machine (Becton Dickenson) at the flow cytometry core facility at the University of Rochester.

A further assay concerns Erk1/Erk2. Description: Sema7A-stimulated MAP kinase activation (P-Erk1/Erk2) in human melanocytes (Western blot). The note with it: PD 98059 10 μM one hour prior to Sema7A 25 ng/ml for 5 minutes. It is filed as cell-based. As to the method:
Total cell lysates were resolved on 10% SDS-PAGE and blotted for phosphorylated Erk1/Erk2; the blot was stripped and re-blotted for total Erk1/Erk2. […] Results are representative of 2 separate experiments. The specificity of MAP kinase activation was tested in melanocytes by the inclusion of the selective p42/44 MAP kinase inhibitor PD 98059 (10 μM) in cells treated with Sema7A (25 ng/ml) for 5 minutes (FIG. 4D). Shown are cell lyates resolved on SDS-PAGE and blotted for P-Erk1/Erk2. The blot was stripped and reblotted for total Erk1/Erk2. As expected, Sema7A stimulated phosphorylation of Erk1/Erk2 within 5 minutes of treatment. […] Results are representative of 2 separate experiments. […]
For Western blotting, cells were lysed in RIPA buffer (150 mM NaCl, 1% NP-40, 0.5% DOC, 0.1% SDS, 50 mM Tris-HCl) with protease inhibitors (Boehringer Mannheim, Gmbt, Germany) and phosphatase inhibitors (Gbiosciences, St. Louis, Mo.) and protein was quantified using bovine serum albumen (BSA) as standard (Bio-Rad Laboratories, Hercules, Calif.). […] After washing in PBS, cells were re-suspended in 0.5% formalin in PBS/1% BSA and analyzed using a FACS Caliber Machine (Becton Dickenson) at the flow cytometry core facility at the University of Rochester.

“Also recorded” adds a separate entry of the source.

As to `Nc1ncn([C@H]2C[C@H](O)[C@@H](CO)O2)c(=O)n1` [5-Aza2Dc, 5-Aza-2′-Deoxycytidine], the “Change in Plexin C1 protein” value is reported as “no change” in the assay with Plexin C1 (C32 melanoma cells); “no change” in the assay with Plexin C1 (WM115 melanoma cells); “reduction” in the assay on Plexin C1 (WW165 melanoma cells); “decrease” with Plexin C1 (WW165 melanoma cells, listed as 5-AzaDc); “increase” in the assay on Plexin C1 (YUMAC melanoma cells); “reduction” in the assay on Plexin C1 (YURIF melanoma cells). Moreover, the “Change in Plexin C1 protein” value in the assay with Plexin C1 (YURIF melanoma cells, listed as 5-AzaDc) is given as “decrease”; with Plexin C1 (YUSIK melanoma cells) it was “no change”. The “Lowest dose that stimulated Plexin C1 expression” value amounted to 1.0 µM with Plexin C1 (WW165 cells, dose response 0.1 μM to 3.0 μM) and 1.0 µM in the assay on Plexin C1 (YURIF cells, dose response 0.1 μM to 3.0 μM). In the assay with Plexin C1 (YUMAC cells, dose response 0.1 μM to 3.0 μM), the “Dose sufficient to increase Plexin C1 expression” value was 0.1 µM.

Take `COc1cccc(-c2cc(=O)c3ccccc3o2)c1N` [PD 98059]: in the assay with Erk1/Erk2, the “Effect on Sema7A-induced Erk1/Erk2 phosphorylation” value is reported as “no induction; also recorded: inhibited”.
